The test system of experiment [1] is Salmonella enterica Typhimurium LT2. As to the kind of experiment: Highly sensitive competition experiments (resistant vs wild type). Format: cell-based. Conditions: 50% sensitive / 50% Streptomycin-resistant bacteria; silver at 0.25×MIC; FIG. 1. The method, then:
(§1) The Minimum Inhibitory Concentration (MIC) of nanosilver (silver) was determined by two-fold dilution series in NaCl free Nutrient Broth (Sigma-Aldrich) in 15 ml screw cap tubes. The tubes were incubated in the dark over night at 37° C. without shaking. The MIC was determined as the lowest concentration of nanosilver (silver) at which no visible growth was observed.

The test system of experiment [2] is S. enterica Typhimurium LT2. Put plainly: AgSol-antibiotic synergy screening assay. Format: cell-based, Salmonella enterica. Conditions: FIGS. 2A-2F. The method, then:
(§2) Antibiotic stock solutions were serially diluted in 2-fold steps in pre-warmed (37° C.) nutrient broth (NB) to prepare an antibiotic concentration gradient above and below the minimal inhibitory concentration (MIC) of antibiotic (Table 4). 50 μl of prepared dilutions were aliquoted into a 96-well round bottom plate (Nunc, Thermo Fisher) for the screening assay.
(§3) Silver formulation (AgSol1000 (particles with 19 Ag per silica particle), AgSol300 (particles with 6 Ag per silica particle, AgNO3), aluminum coated silica beads (159/500 (silica particles with aluminium silicate coating)) and uncoated silica beads (15/500) were diluted in pre-warmed (37° C.) NB. Bindzil®15/500 is an unmodified silica sol, whereas Bindzil®159/500 is a aluminosilicate modified silica sol. Bindzil® is sold by Akzo Nobel AB.
(§4) 40 μl of the prepared dilutions were added to the 96-well plate containing antibiotic gradient to reach the final silver concentration of ¼×MICAgSol (silver) (specific for the microorganism used) (Table 5).
(§5) The prepared plate was incubated in 37° C. incubator without shaking in the dark for 16-20 h and the optical density (OD620) of each well was measured in plate reader Multiscan FC (Thermo Fisher).

For experiment [3], the system named is E. coli K-12 MG1655 (DA4201). As to the kind of experiment: AgSol-antibiotic synergy screening assay / MIC (Ag/Antibiotic screen). In kind it is cell-based, Escherichia coli. The conditions noted are these: for fold increase in effect with AgSol vs antibiotic alone: Table 6, E. coli; for Antibiotic MIC, NB + AgSol1000: antibiotic in combination with AgSol1000 at ¼ × MIC silver; for Fold change (antibiotic MIC, NB vs NB + AgSol1000): dash = MIC unchanged. The method, then:
(§6) The MIC (Minimal Inhibitory Concentration) of a bacterium to a certain antimicrobial agent gives a quantitative estimate of the susceptibility. MIC is defined as the lowest concentration of antimicrobial agent required to inhibit growth of the organism. The principle is simple: Agar plates, tubes or microtitre trays with two-fold dilutions of antibiotics are inoculated with a standardized inoculum of the bacteria and incubated under standardized conditions following NCCLS guidelines. The next day, the MIC is recorded as the lowest concentration of antimicrobial agent with no visible growth. The MIC informs you about the degree of resistance and might give you important information about the resistance mechanism and the resistance genes involved. MIC-determination performed as agar dilution is regarded as the gold standard for susceptibility testing (Source: Global Salm-Surv—A global Salmonella surveillance and laboratory support project of the World Health Organization (4th Ed. April 2002, modified November 2010))
as §1, §2, §3, §4
(§7) Overnight (16-20 h) cultures of 3 biological replicates of the following microorganisms E. coli K-12 MG1655 (DA4201), E. coli K-12 MG1655 rpsL K42N (DA49828), Pseudomonas aeruginosa PAO1 (DA6215) or Staphylococcus aureus USA300 JE2 (DA28823) were grown in NB till saturation (37° C. incubator with 190 rpm shaking). Cultures were diluted in NB to 10^7 CFU/ml and 10 μl of the dilution were added to the 96-well plate containing antibiotic gradient and silver formulations or the bead controls to reach the final concentration of 10^5 CFU/well in 100 μl total volume per well. 3 technical replicates (3 wells) of specific antibiotic concentration in combination with silver and microorganism were used. A control plate containing bacterial cells mixed with only antibiotic gradient was always included too.
as §5

In experiment [4] the test system is gentamicin-resistant P. aeruginosa (DA60255). Put plainly: AgSol-antibiotic synergy screening assay / MIC, gentamicin-resistant strain. Format: cell-based, Pseudomonas aeruginosa. Conditions: AgSol1000 at 0.25×MIC; FIG. 9.
For experiment [5], the system named is Pseudomonas aeruginosa PAO1 (DA6215). Put plainly: Time-kill assay. Format: cell-based. The conditions noted are these: for time-kill: effect of gentamicin in combination with AgSol: 0-48 h, FIGS. 8A, 8B. The method, then:
(§8) Antibiotic stock solutions were diluted in pre-warmed (37° C.) nutrient broth (NB) to prepare 2×MIC concentration (Table 4) of antibiotic in the final volume of 2 ml in 15 ml tubes (Sarstedt).
(§9) Silver formulation (AgSol1000, AgNO3) was diluted in pre-warmed (37° C.) NB and added to the tube containing antibiotic to reach the final silver concentration of ¼×MICAgsol (silver) (Table 5) in the final volume of 2 ml.
(§10) Overnight (16-20 h) cultures of 2 biological replicates of the following microorganisms Pseudomonas aeruginosa PAO1 (DA6215) or Staphylococcus aureus USA300 JE2 (DA28823) were grown in NB till saturation (37° C. incubator with 190 rpm shaking). Cultures were diluted (1/100) in pre-warmed (37° C.) NB and incubated in 37° C. incubator with 190 rpm shaking until they reached exponential growth phase (OD600˜0.2). Final concentration of approximately 10^6 CFU/ml of exponentially dividing cells was used in the total volume of 2 ml mixture of antibiotic and silver formulation. Control tubes with only bacterial cells or bacterial cells mixed with only antibiotic or only silver formulation were also used.
(§11) All tubes were incubated in 37° C. water bath with 150 rpm shaking and 100 μl samples were taken out at pre-determined time points for viable counts (2 technical replicates). CFU counts were normalized to the 0 h sample and were plotted as a function of time (h).
(§12) A “Time Kill” test was performed with S. aureus USA3000 JE2 and Fusidic acid (FUS) and Mupirocin (MUP) and with P. aeruginosa (PAO1) with gentamicin (GEN). From a stock solution with bacteria with controlled growth at 37° C. during 16 h, […] were prepared: • Bacterial cells • Bacterial cells+AgSol • Bacterial cells+AgNO3; • Bacterial cells+AgSol+antibiotic • Bacterial cells+AgNO3+antibiotic
(§13) Samples were taken after 0, 4, 8, 24 and 48 hours at 37° C. (incubation with shaking). The samples were plated for viable counts, CFU counts normalized to 0 h and plotted as a function of time.

For experiment [6] the test system is unchanged. Put plainly: AgSol-antibiotic synergy screening assay / MIC. Format: cell-based. The method, then: as §6, §1, §2, §3, §4, §7, §5
The subject of experiment [7] is E. coli K-12 MG1655 rpsL K42N (DA49828). Put plainly: AgSol-antibiotic synergy screening assay / MIC. In kind it is cell-based. The conditions noted are these: Escherichia coli. The method, then: as §6, §1, §2, §3, §4, §7, §5
Experiment [8] deals with Staphylococcus aureus USA300 JE2 (DA28823). As to the kind of experiment: Time-kill assay. Format: cell-based. The conditions noted are these: antibiotic 2×MIC, silver ¼×MIC; FIG. 7A-B. As for the experimental part:
as §8, §9, §10, §11, §12, §13

For experiment [9] the test system is unchanged. As to the kind of experiment: AgSol-antibiotic synergy screening assay / MIC. Conditions: for effect of antibiotic when adding AgSol: S. aureus (USA300 JE2), FIGS. 4 and 5; for MIC: Staphylococcus aureus, USA300, antibiotic alone, S. aureus (DA28823), values used for antibiotic gradient. Format: cell-based. As for the experimental part:
as §6, §1, §2, §3, §4, §7, §5

The text below walks through data of US20210196738A1, “PHARMACEUTICAL COMPOSITION COMPRISING A COLLOIDAL DISPERSION AND A THERAPEUTIC AGENT AND METHODS AND USES THEREOF” (priority 2017, published 2021).

Entries after “also recorded” stand apart in the source; their conditions may differ. Where two headings read alike, the source gives them in different places. Bounds are passed on as bounds.

As to `O=[N+]([O-])[O-].[Ag+]` [AgNO3, silver nitrate], in experiment [1], the “effect of silver source in combination with Streptomycin” value is given as “synergistic effect”. In addition, the “effect of silver formulation in combination with antibiotics vs silica particles 159/500 and 15/500” value in [2] (Streptomycin or Rifampicin) is given as “improved effect”.
The term MIC denotes the smallest concentration in the dilution series that meets the test's criterion for growth inhibition. Turning to Gentamicin, in [3] (listed as Gentamycin), the “fold increase in effect with AgSol vs antibiotic alone” value came to 17 fold. Also, the MIC in [3] (antibiotic alone, E. coli (DA4201), values used for antibiotic gradient) amounted to 0.5 µg/mL; in [6] (antibiotic alone, P. aeruginosa (DA6215), values used for antibiotic gradient), 0.375 µg/mL. For the same compound, the “Antibiotic MIC, NB” value in experiment [3] (antibiotic alone, nutrient broth) came out at 0.5 µg/mL. Further, in [3] (nutrient broth), the “Antibiotic MIC, NB + AgSol1000” value came to 0.03 µg/mL. In addition, the “Fold change (antibiotic MIC, NB vs NB + AgSol1000)” value in experiment [3] came to 17x. In addition, the “anti-bacterial effect of AgSol and gentamycin on resistant strain” value in experiment [4] is listed as “confirmed the anti-bacterial effect”. Moreover, the “time to almost complete killing (bactericidal effect), gentamicin in combination with AgSol” value in experiment [5] was at most 24 h. The “time-kill: effect of gentamicin in combination with AgSol” value in experiment [5] is “no bacterial growth is visible within 48 hours”; in experiment [5] (listed as GEN), “even stronger bactericidal effect”. Further, in [6] (P. aeruginosa (PAO1), FIG. 3), the “synergistic effect of gentamicin in combination with AgSol” value is −50%. In addition, the “synergistic anti-bacterial effect of antibiotic in combination with colloidal dispersion” value in [6] (P. aeruginosa, FIGS. 3, 8, 9) is listed as “synergistic anti-bacterial effect”. Besides, the “effect on bacteria (OD620) of combination silver/gentamicin” value in [6] (gentamicin 0.19 ug/ml with silver) is reported as “complete killing of bacteria”. Moreover, in experiment [6] (gentamicin 0.19 ug/ml without silver), the “effect on OD620 of gentamicin alone” value is listed as “almost no reduction in OD620”.
With `[H]/N=C(/N)N[C@H]1[C@H](O)[C@@H](O)[C@H](O[C@@H]2O[C@@H](C)[C@](O)(C=O)[C@H]2O[C@@H]2O[C@@H](CO)[C@H](O)[C@@H](O)[C@@H]2NC)[C@@H](N/C(N)=N\[H])[C@@H]1O` [Streptomycin], the MIC in [3] (Escherichia coli, MG1655, antibiotic alone, E. coli (DA4201), values used for antibiotic gradient, read-out: MIC) was found to be 0.5 µg/mL; in experiment [3] (Escherichia coli, MG1655, antibiotic alone, nutrient broth, read-out: Antibiotic MIC, NB) it was 0.5 µg/mL; in experiment [7] it was 2000 µg/mL. For the same compound, the “fold increase in effect with AgSol vs antibiotic alone” value in [3] is recorded as 17 fold. Also, in experiment [3] (nutrient broth), the “Antibiotic MIC, NB + AgSol1000” value came to 0.03 µg/mL. Further, the “Fold change (antibiotic MIC, NB vs NB + AgSol1000)” value in experiment [3] turned out to be 17x. Moreover, in [3] (vs antibiotic alone, E. coli MG 1655 K-12), the “synergistic antibacterial effect of antibiotic in combination with AgSol” value was “markedly improved synergistic effect”. Besides, in experiment [2] (Salmonella), the “synergetic effect of antibiotic in combination with silver” value is “stronger synergetic effect”.
Regarding `CC(=O)O[C@H]1C[C@@]2(C)[C@@H](C[C@@H](O)[C@H]3[C@@]4(C)CC[C@@H](O)[C@@H](C)[C@@H]4CC[C@@]32C)/C1=C(\CCC=C(C)C)C(=O)O` [Fusidic acid], the “time-kill: action of antibiotic in combination with AgSol” value in experiment [8] is “bacteriostatic”. Further, in experiment [9], the “effect of antibiotic when adding AgSol” value is on record as “synergistic anti-bacterial effect; also recorded: there was an effect” and the MIC was determined as 0.12 µg/mL.
For the compound `C/C(=C\C(=O)OCCCCCCCCC(=O)O)C[C@@H]1OC[C@H](C[C@@H]2O[C@H]2[C@@H](C)[C@H](C)O)[C@@H](O)[C@H]1O` [Mupirocin], in [8], the “time-kill: action of antibiotic in combination with AgSol” value is “bacteriostatic”. In addition, in [9], the “effect of antibiotic when adding AgSol” value was “synergistic anti-bacterial effect; also recorded: there was an effect” and the minimum inhibitory concentration (MIC) was determined as 0.12 µg/mL.
